Laboratory results reported in patent US20260131020A1, “IONIZABLE CATIONIC LIPID FOR RNA DELIVERY” (Arcturus Therapeutics, Inc., priority 2016, published 2026).

Experiments:
Factor VII = assay: In vivo mouse Factor VII siRNA knockdown (chromogenic assay of plasma Factor VII protein); parameters: species or system Female C57BL/6 mice; conditions: Factor VII siRNA formulations, i.v. tail vein, both at 0.03 and 0.1 mg/kg, plasma at 48 hours; FIG. 15
Procedure: Using a liver-directed in vivo screen of the liposome libraries, a series of compounds were tested that facilitate high levels of siRNA mediated gene silencing in hepatocytes, the cells comprising the liver parenchyma. Factor VII, a blood clotting factor, is a suitable target gene for assaying functional siRNA delivery to liver. Because this factor is produced specifically in hepatocytes, gene silencing indicates successful delivery to parenchyma, as opposed to delivery to the cells of the reticulo-endothelial system (e.g., Kupffer cells). Furthermore, Factor VII is a secreted protein that can be readily measured in serum, obviating the need to euthanize animals. Silencing at the mRNA level can be readily determined by measuring levels of protein. This is because the protein's short half-life (2-5 hour). Compositions with siRNA directed to Factor VII were formulated with ATX-002, ATX-57, and ATX-58, and comparator sample phosphate-buffered saline (PBS). Female C57BL/6 mice (6-8 week old) were used for FVII siRNA knockdown (KD) experiments. […] Plasma was collected and Factor VII protein levels were analyzed by chromogenic assay (Biophen FVII, Aniara Corporation). A standard curve was constructed using samples from PBS-injected mice and relative Factor VII expression was determined by comparing treated groups to untreated PBS control.

epo protein = assay: In vivo epo protein expression after delivery of lipid encapsulated mouse epo mRNA (epo ELISA); parameters: species or system Female Balb/c mice; conditions: mouse epo mRNA nanoparticles, i.v. tail vein, at 0.1 mg/kg (so in the source), serum at 6 hours; FIG. 16
Procedure: Female Balb/c mice (6-8 week old) were used for evaluation of epo protein expression in vivo following delivery of lipid encapsulated mouse epo mRNA. All formulations were administered intravenously via tail vein injection at a dose of 0.03 and 0.1 mg/kg at a dosing volume of 5 mL/kg. Terminal blood collection was performed via cardiac puncture under 2% isoflurane at 6 hours after formulation injections. Blood was collected into 0.109 M citrate buffer tube and processed by centrifugation at 5000 rpm for 10 minutes. Serum was collected and epo protein levels were analyzed by epo ELISA assay (R&D systems). A standard curve was constructed using samples from PBS-injected mice and relative epo expression was determined by comparing treated groups to untreated PBS control.

mouse epo mRNA = assay: In vivo EPO mRNA stability: epo mRNA levels after injection of lipid encapsulated mouse epo mRNA; parameters: species or system Female Balb/c mice; conditions: nanoparticles with the cationic lipid, i.v. tail vein, 0.03 and 0.1 mg/kg mRNA, blood at 6 hours; FIG. 14
Procedure: Levels of mRNA in plasma were measured and compared following injection of nanoparticles comprising different cationic lipids. Female Balb/c mice (6-8 week old) were used for evaluation of plasma erythropoietin (epo) levels in vivo following injection of lipid encapsulated mouse epo mRNA. All formulations were administered intravenously via tail vein injection at a dose of 0.03 and 0.1 mg/kg at a dosing volume of 5 ml/kg. Terminal blood collection was performed via cardiac puncture under 2% isoflurane at 6 hours after formulation injections. Blood was collected into 0.109 M citrate buffer tube and processed by centrifugation at 5000 rpm for 10 minutes. Serum was collected and epo mRNA levels were analyzed. Results are shown at FIG. 14.

[1] = Titration of lipids to measure pKa; type: physicochemical; conditions: lipids titrated
Excerpt: The lipids were titrated to measure their pKa values.

| Compound | Factor VII knockdown activity compared with ATX-002 (Factor VII) | epo expression compared with ATX-2 (epo protein) | epo mRNA levels compared with ATX-2 (mouse epo mRNA) | pKa [1] |
| --- | --- | --- | --- | --- |
| CCCCCC/C=C\COC(=O)CCCN(CCCC(=O)OC(CCCCCCC)CCCCCCCC)C(=O)SCCN(C)C (centres unmarked) [ATX-57] | substantially more effective than ATX-002 | substantially higher amounts | substantial improvement over ATX-2 | 6 |
| CCCCCC/C=C\COC(=O)CCCN(CCCC(=O)OC(CCCCCC)CCCCCCC)C(=O)SCCN(C)C (centres unmarked) [ATX-58] | substantially more effective than ATX-002 | – | – | 6.1 |
| CCCCCC/C=C\COC(=O)CCCN(CCCC(=O)OC(CCCCCCC)CCCCCCC)C(=O)SCCN(C)C [ATX-81] | – | – | substantial improvement over ATX-2 | 5.9 |
| CCCCCC/C=C\COC(=O)CCCCCN(CCC(=O)OC(CCCCCCC)CCCCCCC)C(=O)SCCN(C)C [ATX-82] | – | – | substantial improvement over ATX-2 | – |
| CCCCCC/C=C\COC(=O)CCCCCN(CCCC(=O)OC(CCCCCCC)CCCCCCC)C(=O)SCCN(C)C [ATX-83] | – | – | substantial improvement over ATX-2 | – |
| CCCCCC/C=C\COC(=O)CCCCCN(CCCC(=O)OC(CCCCCC)CCCCCC)C(=O)SCCN(C)C [ATX-84] | – | – | substantial improvement over ATX-2 | 6.1 |
| CCCCCC/C=C\COC(=O)CCCN(CCCC(=O)OC(CCCCCC)CCCCCC)C(=O)SCCN(C)C [ATX-86] | – | – | substantial improvement over ATX-2 | – |
| CCCCCC/C=C\COC(=O)CCCN(CCCC(=O)OC(CCCCCCCC)CCCCCCCC)C(=O)SCCN(C)C [ATX-87] | – | – | substantial improvement over ATX-2 | – |
